Reference: ChEMBL document CHEMBL1142758, “Neuroprotective effects of naturally occurring biflavonoids” (2005)

What was measured:
Assay type in all cases: functional
[1] = Protective effect of compound on Ab25 35-induced cell death in SH-SY5Y cells (concentration = 10 uM)
[2] = Protective effect of compound on SNP-induced cell death in SH-SY5Y cells (concentration = 0.4 uM)
[3] = Protective effect of compound on Ab25 35-induced cell death in SH-SY5Y cells (concentration = 4 uM)
[4] = Protective effect of compound on Ab25 35-induced cell death in SH-SY5Y cells (concentration = 0.2 uM)
[5] = Protective effect of compound on SNP-induced cell death in SH-SY5Y cells (concentration = 10 uM)
[6] = Protective effect of compound on hydrogen peroxide-induced cell death in SH-SY5Y cells (concentration = 0.4 uM)
[7] = Protective effect of compound on hydrogen peroxide-induced cell death in SH-SY5Y cells (concentration = 10 uM)
[8] = Protective effect of compound on hydrogen peroxide-induced cell death in SH-SY5Y cells (concentration = 2 uM)
[9] = Protective effect of compound on SNP-induced cell death in SH-SY5Y cells (concentration = 2 uM)
[10] = Protective effect of compound on compounds on SNP-induced cell death in SH-SY5Y cells (concentration = 0.4 uM)
[11] = Protective effect of test compound on SNP-induced cell death in SH-SY5Y cells (concentration = 2 uM)
[12] = Protective effect of test compound on SNP-induced cell death in SH-SY5Y cells (concentration = 10 uM)
[13] = Protective effect of test compound on SNP-induced cell death in SH-SY5Y cells (concentration = 0.4 uM)
[14] = Protective effect of test compound on Ab25 35-induced cell death in SH-SY5Y cells (concentration = 4 uM)
[15] = Protective effect of test compound on hydrogen peroxide-induced cell death in SH-SY5Y cells (concentration = 2 uM)
[16] = Protective effect of test compound on Ab25 35-induced cell death in SH-SY5Y cells (concentration = 10 uM)
[17] = Protective effect of test compound on Ab25 35-induced cell death in SH-SY5Y cells (concentration = 0.2 uM)
[18] = Protective effects of test compounds on Ab25 35-induced cell death in SH-SY5Y cells (concentration = 10 uM)

SMILES | Inhibition [1] | Inhibition [2] [%] | Inhibition [3] [%] | Inhibition [4] | Inhibition [5] [%] | Inhibition [6] [%] | Inhibition [7] [%] | Inhibition [8] [%] | Inhibition [9] [%] | Inhibition [10] [µM] | Inhibition [11] [µM] | Inhibition [12] [µM] | Inhibition [13] [µM] | Inhibition [14] [µM] | Inhibition [15] [µM] | Inhibition [16] [µM] | Inhibition [17] [µM] | Inhibition [18] [µM]
COC1=CC2OC(c3ccc(O)cc3)=CC(=O)C2C(O)=C1Oc1ccc(-c2cc(=O)c3c(O)cc(O)cc3o2)cc1 (stereo unspecified) | -0.2% | -16 | 11 | 18% | -25 | -3.5 | 68.1 | 23.9 | -14.8 | – | – | – | – | – | – | – | – | –
COc1cc(O)c2c(=O)cc(-c3ccc(OC)c(C4=C(O)C=C(O)C5C(=O)C=C(c6ccc(O)cc6)OC45)c3)oc2c1 (stereo unspecified) | 5.6% | – | 43.6 | 29.5 µM | 32.4 | 11.3 | 35.7 | 12.2 | 7.8 | -0.1 | – | – | – | – | – | – | – | –
COc1ccc(-c2cc(=O)c3c(O)cc(O)cc3o2)cc1Oc1ccc(-c2cc(=O)c3c(O)cc(O)cc3o2)cc1 | 14.8% | 2.9 | 0.9 | 13% | 1.6 | 1.8 | 12.1 | -1.2 | 0.1 | – | – | – | – | – | – | – | – | –
O=C1C=C(c2ccc(O)cc2)OC2C=C(O)C(Oc3ccc(-c4cc(=O)c5c(O)cc(O)cc5o4)cc3)=C(O)C12 (stereo unspecified) | -10% | 2.5 | -19.9 | 8.7% | 15 | 7.8 | 56 | 19.8 | -9.4 | – | – | – | – | – | – | – | – | –
COc1ccc(C2=CC(=O)C3C(O)=CC(O)=C(c4cc(-c5cc(=O)c6c(O)cc(O)cc6o5)ccc4OC)C3O2)cc1 (stereo unspecified) | 43.8 µM | 6.9 | 59.1 | 19.7% | 23.5 | 40.1 | 55.1 | 28.7 | 10.5 | – | – | – | – | – | – | – | – | –
COc1ccc(-c2cc(=O)c3c(O)cc(O)cc3o2)cc1C1=C(O)C=C(O)C2C(=O)C=C(c3ccc(O)cc3)OC12 (stereo unspecified) | -7.5% | 2.5 | 1.9 | 9.8% | 11 | 25.3 | 62.9 | 30.4 | 4.8 | – | – | – | – | – | – | – | – | –
O=C1C=C(c2ccc(O)cc2)OC2C(c3cc(-c4cc(=O)c5c(O)cc(O)cc5o4)ccc3O)=C(O)C=C(O)C12 (stereo unspecified) | – | – | – | – | – | 27 | 62 | – | – | – | 16.4 | 40.5 | 5.2 | 25.4 | 39.9 | 31.8 | 3.6 | –
COc1ccc(C2=CC(=O)C3C(O)=CC(O)=C(c4cc(-c5cc(=O)c6c(O)cc(OC)cc6o5)ccc4OC)C3O2)cc1 (stereo unspecified) | – | 28.5 | 38.1 | 27.1% | 4.6 | 39.5 | 69.5 | 52.1 | 8.1 | – | – | – | – | – | – | – | – | 35.1
O=c1cc(-c2ccc(Oc3cc(-c4cc(=O)c5c(O)cc(O)cc5o4)ccc3O)cc2)oc2cc(O)cc(O)c12 [OCHNAFLAVONE] | -1.9% | 10 | -32.1 | -12.7% | 9.3 | -3.6 | -32.7 | -12.1 | 7.7 | – | – | – | – | – | – | – | – | –
